# Publication PMC9785280, “Synthesis, Antiproliferative Evaluation and QSAR Analysis of Novel Halogen- and Amidino-Substituted Benzothiazoles and Benzimidazoles” (International Journal of Molecular Sciences, 2022)
# Legend:
# [1] = tested on: MDCK1 (Madin–Darby canine kidney) cells; test: MTT antiproliferative assay, non-tumor MDCK1 cells; type: cell-based; details: Canis lupus familiaris, MDCK1, 72 h, mean ± SD of three independent experiments, normal cells
# Protocol: (§1) The growth inhibition activity was assessed according to the slightly modified procedure performed at the National Cancer Institute, Developmental Therapeutics Program.
# (§2) Examined compounds were dissolved in DMSO (1 × 10^−2 M). The experiments were carried out on seven human tumor cell lines and two normal cell lines. The following cell lines were used: HeLa (human cervical adenocarcinoma; purchased from ATCC), CaCo-2 (human colorectal adenocarcinoma), HuT78 (T-cell lymphoma), THP-1 (acute monocytic leukemia), SW620 (colorectal adenocarcinoma, metastatic), MDA-MB-231 (human breast adenocarcinoma), HL60 (promyelocytic leukemia cell line), foreskin fibroblast cells (BJ) and MDCK1 (Madine–Darby canine kidney fibroblast like cells). MDCK1 cells were used between 24 and 26 passages.
# (§3) Adherent cells were cultured in the Dulbecco’s modified Eagle medium—DMEM (Gibco, EU) supplemented with 10 % heat-inactivated fetal bovine serum (FBS, Gibco, EU), 2 mM glutamine, and 100 U/0.1 mg penicillin/streptomycin. Cells on suspension were cultured in RPMI 1640 (Gibco, EU) medium supplemented with 10 % FBS (Gibco, EU), 2 mM glutamine, 1 mM sodium pyruvate, 10 mM HEPES. Cells were grown in humidified atmosphere under the conditions of 37 °C/5% of CO2 gas in the CO2 incubator (IGO 150 CELLlife^TM, JOUAN, Thermo Fisher Scientific, Waltham, MA, USA). A erythrosin B (Sigma-Aldrich, St. Louis, MO, USA) dye exclusion method was used to assess cell viability before plating.
# (§4) Adherent cells (HeLa, CaCo-2, MCF-7 and MDCK-1) were plated in 96-well flat bottom plates (Greiner, Frickenhausen, Austria) at a concentration of 2 × 10^4 cells/mL. Suspension cells (THP-1 and HuT78) were plated in 96-well microtiter plates (Sarstead, Newton, USA) at a concentration of 1 × 10^5 cells/mL. Twenty-four hours later, cells were treated with test agents in […] 10-fold dilutions ([…] to 10^−4 M) and incubated for further 72 h. Working dilutions were freshly prepared on the day of testing. The solvent was also tested for eventual inhibitory activity by adjusting its concentration to be the same as in working concentrations. After 72 h of incubation, the cell growth rate was evaluated by performing the MTT assay, which detects dehydrogenase activity in viable cells. For this purpose, upon completion of the incubation period, growth medium was discarded and 50 μL of MTT was added to each well at a concentration of 5 mg/mL. After four hours of incubation at 37 °C, water insoluble MTT-formazan crystals were dissolved in 150 μL of dimethyl-sulfoxide (DMSO) for adherent cells, and in 10 % SDS with 0.01 M/L HCl for cells grown in suspension. The absorbance (OD, optical density) was measured on a microplate reader (iMark, BIO RAD, Hercules, CA, USA) at 595 nm.
# (§5) Percent of life cells was calculated as follows: % = OD (sample)–OD (background)/OD (control)–OD (background) × 100.
# (§6) Optical density (OD) of background for adherent cells is the OD of MTT solution and DMSO; OD (background) for suspension cells is OD of the culture medium with MTT and 10% SDS with 0.01 M/L HCl; OD (control) is the OD of the cells growth without tested compounds.
# (§7) Calculation of GI50 value curves and QC analysis is performed by using the Excel tools and GraphPadPrism software (La Jolla, CA), v. 5.03. Briefly, individual concentration effect curves are generated by plotting the logarithm of the concentration of tested compounds(X) vs. corresponding percent inhibition values (Y) using least squares fit. The best fit GI50 values are calculated using Log (inhibitor) versus normalized response—Variable slope equation, where Y Ľ 100/(1 ţ 10 ((LogIC50 _ X) * HillSlope)). QC criteria parameters (Z0, S:B, R2, HillSlope) were checked for every GI50 curve.
# [2] = tested on: human fibroblasts (BJ); test: MTT antiproliferative assay, normal BJ fibroblasts; type: cell-based; details: Homo sapiens, Fibroblast, 72 h, MTT, mean ± SD of three independent experiments; normal cells
# Protocol: as §1, §2, §3, §4, §5, §6, §7
# [3] = tested on: HeLa (cervical adenocarcinoma) cells; test: MTT antiproliferative assay, HeLa; type: cell-based; details: Homo sapiens, 72 h, mean ± SD of three independent experiments
# Protocol: as §1, §2, §3, §4, §5, §6, §7
# [4] = tested on: CaCo-2 (colon adenocarcinoma) cells; test: MTT antiproliferative assay, CaCo-2; type: cell-based, human; details: Homo sapiens, Caco-2; 72 h, MTT, mean ± SD of three independent experiments
# Protocol: as §1, §2, §3, §4, §5, §6
# as §7, with “The best fit GI50 values are calculated using Log (inhibitor) versus normalized response—Variable slope equation, where Y Ľ 100/(1 ţ 10 ((LogIC50 _ X) * HillSlope)).” left out
# [5] = tested on: HuT78 (T-cell lymphoma) cells; test: MTT antiproliferative assay, HuT78; type: cell-based, human; details: for IC50: Homo sapiens, HuT78, 72 h, 72 h, MTT, mean ± SD of three independent experiments; for SI (MDCK) HuT78: SI = IC50 MDCK1 / IC50 HuT78; for SI (BJ) HuT78: SI = IC50 BJ / IC50 HuT78
# Protocol: as §1, §2, §3, §4, §5, §6, §7
SMILES,IC50 [1],IC50 [2],IC50 [3],IC50 [4],IC50 [5],SI (MDCK) HuT78 [5],melting point,SI (BJ) HuT78 [5]
"Cl.Fc1cc(-c2nc3ccc(C4=NCCN4)cc3s2)ccc1OCc1c[nH]nn1 [36b, 2-(3-Fluoro-4-((1H-1,2,3-triazol-4-yl)methoxy)phenyl)-6-(4,5-dihydro-1H-imidazol-2-yl)benzothiazole hydrochloride]",25.2 ± 1.3 µM,32.6 ± 3.4 µM,30 ± 1 µM,38.3 ± 1.2 µM,1.8 ± 0.4 µM,14,234 to 237 °C,–
"Fc1ccc2nc(-c3ccc(OCc4cn(Cc5ccccc5)nn4)c(F)c3)sc2c1 [25b, 6-Fluoro-2-(3-fluoro-4-((1-benzyl-1H-1,2,3-triazol-4-yl)methoxy)phenyl)benzothiazole]",51.3 ± 4.6 µM,> 100 µM,> 100 µM,> 100 µM,19.7 ± 10.6 µM,2.6,205 to 208 °C,5.07
"Clc1ccc2nc(-c3ccc(OCc4c[nH]nn4)cc3)sc2c1 [21a, 6-Chloro-2-(4-((1H-1,2,3-triazol-4-yl)methoxy)phenyl)benzothiazole]",12.6 ± 4.8 µM,> 100 µM,> 100 µM,> 100 µM,6.8 ± 6.2 µM,1.85,220 to 223 °C,14.7
"Cl.O=C(COc1ccc(-c2nc3ccc(C4=NCCN4)cc3s2)cc1F)c1ccccc1 [34b, 2-(3-Fluoro-4-(2-oxo-2-phenylethoxy)phenyl)-6-(4,5-dihydro-1H-imidazol-2-yl)benzothiazole hydrochloride]",2.2 ± 0.3 µM,11.2 ± 6 µM,4.5 ± 4.3 µM,7 ± 5.4 µM,2.1 ± 0.2 µM,–,> 240 °C,–
"O=C(COc1ccc(-c2nc3ccccc3s2)cc1F)c1ccccc1 [17b, 2-(3-Fluoro-4-(2-oxo-2-phenylethoxy)phenyl)benzothiazole]",> 100 µM,> 100 µM,> 100 µM,> 100 µM,> 100 µM,–,174 to 177 °C,–
"Fc1cc(-c2nc3ccc(Cl)cc3s2)ccc1OCc1c[nH]nn1 [21b, 6-Chloro-2-(3-fluoro-4-((1H-1,2,3-triazol-4-yl)methoxy)phenyl)benzothiazole]",10.1 ± 4.5 µM,84.1 ± 24.7 µM,> 100 µM,> 100 µM,3.6 ± 3.1 µM,2.8,205 to 209 °C,23.36
"COc1cc(-c2nc3ccc(F)cc3s2)ccc1OCc1c[nH]nn1 [22c, 6-Fluoro-2-(3-methoxy-4-((1H-1,2,3-triazol-4-yl)methoxy)phenyl)benzothiazole]",0.7 ± 0.3 µM,> 100 µM,> 100 µM,> 100 µM,38.1 ± 23.4 µM,–,196 to 199 °C,2.62
"O=C(COc1ccc(-c2nc3ccc(F)cc3s2)cc1)c1ccccc1 [16a, 6-Fluoro-2-(4-(2-oxo-2-phenylethoxy)phenyl)benzothiazole]",87.3 ± 6.9 µM,> 100 µM,> 100 µM,> 100 µM,> 100 µM,–,164 to 167 °C,–
"COc1cc(-c2nc3ccc(Cl)cc3s2)ccc1OCC(=O)c1ccccc1 [15c, 6-Chloro-2-(3-methoxy-4-(2-oxo-2-phenylethoxy)phenyl)benzothiazole]",79.3 ± 14.4 µM,> 100 µM,> 100 µM,> 100 µM,> 100 µM,–,163 to 166 °C,–
